Key:
Experiment in all cases: KAM-matrix competition in K562 lysate;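 on 0.001 uM KAM: median log10 fold change of treatment over DMSO control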;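 on 0.01 uM KAM: median log10 fold change of treatment over DMSO control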;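 on 0.1 uM KAM: median log10 fold change of treatment over DMSO control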;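 on 1 uM KAM: median log10 fold change of treatment over DMSO control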;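 on 10 uM KAM: median log10 fold change of treatment over DMSO control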
Type in all cases: binding
ARAF = molecular target: T1, ARAF (Homo sapiens, UniProt P10398);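 on 0.001 uM KAM: median log10 fold change of treatment over DMSO control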;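 on 0.01 uM KAM: median log10 fold change of treatment over DMSO control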;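 on 0.1 uM KAM: median log10 fold change of treatment over DMSO control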;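 on 1 uM KAM: median log10 fold change of treatment over DMSO control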;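 on 10 uM KAM: median log10 fold change of treatment over DMSO control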
T1 construct: endogenous in cells; host or cells: K562
T1 sequence (P10398 1-606): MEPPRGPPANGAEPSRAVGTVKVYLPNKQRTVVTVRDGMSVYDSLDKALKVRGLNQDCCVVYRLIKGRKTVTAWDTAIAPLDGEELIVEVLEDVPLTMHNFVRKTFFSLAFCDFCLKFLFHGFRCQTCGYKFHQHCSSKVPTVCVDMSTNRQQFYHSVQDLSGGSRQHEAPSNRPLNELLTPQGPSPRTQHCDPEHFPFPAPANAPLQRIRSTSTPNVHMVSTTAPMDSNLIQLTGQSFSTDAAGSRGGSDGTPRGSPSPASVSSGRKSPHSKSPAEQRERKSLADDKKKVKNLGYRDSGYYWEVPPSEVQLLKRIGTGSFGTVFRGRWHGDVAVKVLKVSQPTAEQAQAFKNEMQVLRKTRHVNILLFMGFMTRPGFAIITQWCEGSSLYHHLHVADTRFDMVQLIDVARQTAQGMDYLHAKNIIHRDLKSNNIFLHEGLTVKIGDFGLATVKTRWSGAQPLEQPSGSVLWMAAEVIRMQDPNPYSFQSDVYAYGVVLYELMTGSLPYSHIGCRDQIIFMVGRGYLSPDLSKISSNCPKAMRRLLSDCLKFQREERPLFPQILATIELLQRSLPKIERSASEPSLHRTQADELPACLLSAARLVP
Description: (§1) Supplement 12953_2017_125_MOESM1_ESM.zip/MS_Supp Info.xlsx, sheet "KAM" | column: 10 uM KAM; 1 uM KAM; 0.1 uM KAM; 0.01 uM KAM; 0.001 uM KAM; RB50

BUB1 = molecular target: T2, BUB1 (Homo sapiens, UniProt O43683);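 on 0.001 uM KAM: median log10 fold change of treatment over DMSO control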;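 on 0.01 uM KAM: median log10 fold change of treatment over DMSO control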;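 on 0.1 uM KAM: median log10 fold change of treatment over DMSO control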;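 on 1 uM KAM: median log10 fold change of treatment over DMSO control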;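 on 10 uM KAM: median log10 fold change of treatment over DMSO control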
T2 construct: endogenous in cells; host or cells: K562
T2 sequence (O43683 whole entry): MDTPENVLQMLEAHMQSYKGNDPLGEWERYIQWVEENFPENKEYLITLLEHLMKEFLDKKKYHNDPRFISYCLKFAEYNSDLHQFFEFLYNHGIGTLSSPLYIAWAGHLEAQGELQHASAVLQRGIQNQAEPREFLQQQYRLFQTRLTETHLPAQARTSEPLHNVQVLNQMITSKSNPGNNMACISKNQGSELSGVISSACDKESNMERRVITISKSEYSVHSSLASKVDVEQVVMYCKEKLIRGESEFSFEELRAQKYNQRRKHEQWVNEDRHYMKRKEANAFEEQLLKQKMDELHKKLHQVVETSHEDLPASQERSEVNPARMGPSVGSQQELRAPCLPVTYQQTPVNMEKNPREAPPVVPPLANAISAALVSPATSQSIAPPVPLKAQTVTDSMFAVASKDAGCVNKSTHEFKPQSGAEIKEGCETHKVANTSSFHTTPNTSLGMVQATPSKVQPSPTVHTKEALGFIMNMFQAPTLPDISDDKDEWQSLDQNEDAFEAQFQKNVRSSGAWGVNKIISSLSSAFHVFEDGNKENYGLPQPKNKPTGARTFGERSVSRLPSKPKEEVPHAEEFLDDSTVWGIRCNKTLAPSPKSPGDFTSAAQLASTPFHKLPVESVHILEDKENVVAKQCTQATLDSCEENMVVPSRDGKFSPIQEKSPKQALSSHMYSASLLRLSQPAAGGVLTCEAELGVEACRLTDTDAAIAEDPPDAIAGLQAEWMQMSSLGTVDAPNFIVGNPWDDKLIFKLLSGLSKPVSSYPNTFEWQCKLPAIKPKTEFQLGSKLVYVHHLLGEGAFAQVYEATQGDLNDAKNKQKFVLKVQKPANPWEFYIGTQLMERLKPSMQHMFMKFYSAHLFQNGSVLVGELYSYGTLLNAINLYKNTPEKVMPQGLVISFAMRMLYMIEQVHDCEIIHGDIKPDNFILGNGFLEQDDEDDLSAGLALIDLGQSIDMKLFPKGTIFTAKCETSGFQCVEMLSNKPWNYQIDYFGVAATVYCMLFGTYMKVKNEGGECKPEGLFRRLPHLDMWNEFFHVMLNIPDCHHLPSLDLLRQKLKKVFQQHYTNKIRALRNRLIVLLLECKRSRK
Description: as §1

TBK1 = molecular target: T3, TBK1 (Homo sapiens, UniProt Q9UHD2)
T3 construct: endogenous in cells; host or cells: K562
T3 sequence (Q9UHD2 1-729): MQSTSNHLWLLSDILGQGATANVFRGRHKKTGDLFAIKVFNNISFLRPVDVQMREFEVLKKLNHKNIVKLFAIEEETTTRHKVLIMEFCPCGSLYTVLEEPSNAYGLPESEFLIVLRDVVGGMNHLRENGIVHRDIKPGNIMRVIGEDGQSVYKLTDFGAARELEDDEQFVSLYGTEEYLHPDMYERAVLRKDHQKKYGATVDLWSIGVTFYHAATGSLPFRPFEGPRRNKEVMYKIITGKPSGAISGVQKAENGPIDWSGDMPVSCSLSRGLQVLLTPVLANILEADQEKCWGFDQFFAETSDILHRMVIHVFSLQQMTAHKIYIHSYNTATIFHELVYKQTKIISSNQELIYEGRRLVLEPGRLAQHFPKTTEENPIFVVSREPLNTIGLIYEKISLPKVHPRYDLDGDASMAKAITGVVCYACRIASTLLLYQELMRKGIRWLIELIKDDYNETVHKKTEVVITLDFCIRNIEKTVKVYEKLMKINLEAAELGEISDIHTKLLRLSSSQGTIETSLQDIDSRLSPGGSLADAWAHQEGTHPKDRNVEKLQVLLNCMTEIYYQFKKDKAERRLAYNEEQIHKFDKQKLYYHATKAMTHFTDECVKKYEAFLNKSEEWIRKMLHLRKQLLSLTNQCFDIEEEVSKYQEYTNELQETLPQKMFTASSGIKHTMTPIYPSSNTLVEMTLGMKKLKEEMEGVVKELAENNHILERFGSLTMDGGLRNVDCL
Description: as §1

IRAK1 = molecular target: T4, IRAK1 (Homo sapiens, UniProt P51617);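 on 0.001 uM KAM: median log10 fold change of treatment over DMSO control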;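 on 0.01 uM KAM: median log10 fold change of treatment over DMSO control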;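 on 0.1 uM KAM: median log10 fold change of treatment over DMSO control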;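 on 1 uM KAM: median log10 fold change of treatment over DMSO control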;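 on 10 uM KAM: median log10 fold change of treatment over DMSO control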
T4 construct: endogenous in cells; host or cells: K562
T4 sequence (P51617 whole entry): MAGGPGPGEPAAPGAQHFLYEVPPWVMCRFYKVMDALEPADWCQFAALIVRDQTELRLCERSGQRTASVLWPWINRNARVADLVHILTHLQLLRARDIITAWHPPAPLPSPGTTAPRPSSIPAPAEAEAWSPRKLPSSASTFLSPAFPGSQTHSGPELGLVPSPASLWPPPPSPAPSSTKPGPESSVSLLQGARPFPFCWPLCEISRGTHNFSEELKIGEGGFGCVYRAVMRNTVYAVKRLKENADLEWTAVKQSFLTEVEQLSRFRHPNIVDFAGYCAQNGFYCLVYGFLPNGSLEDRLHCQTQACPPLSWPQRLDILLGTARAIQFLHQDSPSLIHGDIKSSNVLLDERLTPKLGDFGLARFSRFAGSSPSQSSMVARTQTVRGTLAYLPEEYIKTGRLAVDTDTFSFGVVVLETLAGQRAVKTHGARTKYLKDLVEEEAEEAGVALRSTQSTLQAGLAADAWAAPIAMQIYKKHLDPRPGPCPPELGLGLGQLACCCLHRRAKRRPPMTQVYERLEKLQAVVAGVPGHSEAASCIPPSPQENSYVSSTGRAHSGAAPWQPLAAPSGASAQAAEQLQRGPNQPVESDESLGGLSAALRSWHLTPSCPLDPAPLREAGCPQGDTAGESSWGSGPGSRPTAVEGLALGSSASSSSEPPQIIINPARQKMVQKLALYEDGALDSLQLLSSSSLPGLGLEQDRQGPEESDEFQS
Description: as §1

ZAK = molecular target: T5, ZAK (Homo sapiens, UniProt Q9NYL2)
T5 construct: endogenous in cells; host or cells: K562 cell lysate
T5 sequence (Q9NYL2 whole entry): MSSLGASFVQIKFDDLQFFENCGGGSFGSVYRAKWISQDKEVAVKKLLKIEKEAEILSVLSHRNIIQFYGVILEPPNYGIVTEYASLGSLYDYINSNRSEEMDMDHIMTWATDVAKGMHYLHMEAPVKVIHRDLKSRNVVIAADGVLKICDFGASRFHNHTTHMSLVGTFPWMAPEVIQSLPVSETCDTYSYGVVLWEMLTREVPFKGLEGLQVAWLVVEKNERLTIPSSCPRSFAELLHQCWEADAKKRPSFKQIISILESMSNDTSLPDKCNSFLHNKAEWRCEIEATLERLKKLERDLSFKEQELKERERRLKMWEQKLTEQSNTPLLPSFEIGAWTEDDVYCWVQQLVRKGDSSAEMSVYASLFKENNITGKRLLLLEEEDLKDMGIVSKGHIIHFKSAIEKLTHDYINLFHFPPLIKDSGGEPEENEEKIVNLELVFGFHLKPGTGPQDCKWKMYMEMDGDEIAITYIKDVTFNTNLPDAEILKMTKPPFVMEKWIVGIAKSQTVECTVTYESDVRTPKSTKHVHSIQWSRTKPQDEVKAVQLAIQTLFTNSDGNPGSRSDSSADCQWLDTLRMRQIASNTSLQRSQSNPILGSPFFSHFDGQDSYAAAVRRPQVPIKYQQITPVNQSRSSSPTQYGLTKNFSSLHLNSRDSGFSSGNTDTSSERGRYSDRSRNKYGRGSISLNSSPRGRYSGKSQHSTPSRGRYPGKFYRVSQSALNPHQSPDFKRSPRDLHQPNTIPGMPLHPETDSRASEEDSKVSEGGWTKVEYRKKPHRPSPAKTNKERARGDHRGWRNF
Description: as §1

CLK1 = molecular target: T6, CLK1 (Homo sapiens, UniProt P49759)
T6 construct: endogenous in cells; host or cells: K562
T6 sequence (P49759 whole entry): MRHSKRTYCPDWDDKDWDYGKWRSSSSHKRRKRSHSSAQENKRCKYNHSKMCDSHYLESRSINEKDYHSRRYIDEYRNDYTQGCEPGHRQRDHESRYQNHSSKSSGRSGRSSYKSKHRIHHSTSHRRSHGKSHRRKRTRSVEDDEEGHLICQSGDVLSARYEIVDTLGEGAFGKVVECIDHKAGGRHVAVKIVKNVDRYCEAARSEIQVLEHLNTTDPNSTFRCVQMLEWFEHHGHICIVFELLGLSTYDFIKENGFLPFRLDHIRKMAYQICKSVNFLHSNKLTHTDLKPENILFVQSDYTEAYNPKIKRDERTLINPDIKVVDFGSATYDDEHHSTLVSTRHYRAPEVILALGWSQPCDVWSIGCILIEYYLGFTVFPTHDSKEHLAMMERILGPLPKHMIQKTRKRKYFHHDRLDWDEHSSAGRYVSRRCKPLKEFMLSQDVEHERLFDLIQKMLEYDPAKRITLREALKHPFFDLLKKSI
Description: as §1

MAPK7 = molecular target: T7, MAPK7 (Homo sapiens, UniProt Q13164);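 on 0.001 uM KAM: median log10 fold change of treatment over DMSO control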;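 on 0.01 uM KAM: median log10 fold change of treatment over DMSO control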;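 on 0.1 uM KAM: median log10 fold change of treatment over DMSO control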;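 on 1 uM KAM: median log10 fold change of treatment over DMSO control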;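 on 10 uM KAM: median log10 fold change of treatment over DMSO control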
T7 construct: endogenous in cells; host or cells: K562
Description: as §1

LIMK2 = molecular target: T8, LIMK2 (Homo sapiens, UniProt P53671);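 on 0.001 uM KAM: median log10 fold change of treatment over DMSO control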;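 on 0.01 uM KAM: median log10 fold change of treatment over DMSO control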;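 on 0.1 uM KAM: median log10 fold change of treatment over DMSO control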;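 on 1 uM KAM: median log10 fold change of treatment over DMSO control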;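 on 10 uM KAM: median log10 fold change of treatment over DMSO control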
T8 construct: endogenous in cells; host or cells: K562
T8 sequence (P53671 whole entry): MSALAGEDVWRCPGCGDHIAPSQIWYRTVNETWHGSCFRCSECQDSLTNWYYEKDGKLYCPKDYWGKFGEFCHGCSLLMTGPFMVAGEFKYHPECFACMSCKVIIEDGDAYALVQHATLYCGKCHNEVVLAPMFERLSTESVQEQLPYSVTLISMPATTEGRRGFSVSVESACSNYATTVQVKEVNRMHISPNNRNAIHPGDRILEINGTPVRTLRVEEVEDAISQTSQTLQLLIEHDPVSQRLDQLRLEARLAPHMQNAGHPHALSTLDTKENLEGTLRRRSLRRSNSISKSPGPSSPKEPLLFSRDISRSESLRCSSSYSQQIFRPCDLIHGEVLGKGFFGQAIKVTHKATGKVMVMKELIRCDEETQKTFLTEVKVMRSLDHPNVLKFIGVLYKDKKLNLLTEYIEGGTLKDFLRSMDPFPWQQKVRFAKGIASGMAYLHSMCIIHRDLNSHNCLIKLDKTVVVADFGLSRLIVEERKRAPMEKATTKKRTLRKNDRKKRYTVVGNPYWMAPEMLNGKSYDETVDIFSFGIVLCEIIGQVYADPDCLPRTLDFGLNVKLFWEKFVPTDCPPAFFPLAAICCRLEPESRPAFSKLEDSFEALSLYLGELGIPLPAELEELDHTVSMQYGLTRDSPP
Description: as §1

RAF1 = molecular target: T9, RAF1 (Homo sapiens, UniProt P04049);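 on 0.001 uM KAM: median log10 fold change of treatment over DMSO control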;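 on 0.01 uM KAM: median log10 fold change of treatment over DMSO control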;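 on 0.1 uM KAM: median log10 fold change of treatment over DMSO control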;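 on 1 uM KAM: median log10 fold change of treatment over DMSO control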;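 on 10 uM KAM: median log10 fold change of treatment over DMSO control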
T9 construct: endogenous in cells; host or cells: K562
T9 sequence (P04049 whole entry): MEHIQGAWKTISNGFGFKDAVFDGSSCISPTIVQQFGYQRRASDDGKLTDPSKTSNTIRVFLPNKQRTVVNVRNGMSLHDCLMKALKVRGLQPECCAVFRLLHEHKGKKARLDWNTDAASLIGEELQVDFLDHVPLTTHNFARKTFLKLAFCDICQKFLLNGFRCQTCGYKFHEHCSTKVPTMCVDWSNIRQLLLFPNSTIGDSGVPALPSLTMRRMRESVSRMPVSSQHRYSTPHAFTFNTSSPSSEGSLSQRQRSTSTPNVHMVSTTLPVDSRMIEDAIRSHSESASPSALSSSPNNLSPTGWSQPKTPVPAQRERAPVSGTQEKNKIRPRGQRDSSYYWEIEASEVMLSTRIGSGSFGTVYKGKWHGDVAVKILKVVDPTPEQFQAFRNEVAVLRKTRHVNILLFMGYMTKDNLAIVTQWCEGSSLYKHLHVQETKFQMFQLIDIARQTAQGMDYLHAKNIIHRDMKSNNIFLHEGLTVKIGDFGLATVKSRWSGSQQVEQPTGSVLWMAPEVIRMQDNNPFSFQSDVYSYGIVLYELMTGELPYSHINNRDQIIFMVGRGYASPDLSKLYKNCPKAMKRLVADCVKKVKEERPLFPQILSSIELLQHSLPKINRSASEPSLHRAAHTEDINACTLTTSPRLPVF
Description: as §1

PRKCQ = molecular target: T10, PRKCQ (Homo sapiens, UniProt Q04759)
T10 construct: endogenous in cells; host or cells: K562
T10 sequence (Q04759 whole entry): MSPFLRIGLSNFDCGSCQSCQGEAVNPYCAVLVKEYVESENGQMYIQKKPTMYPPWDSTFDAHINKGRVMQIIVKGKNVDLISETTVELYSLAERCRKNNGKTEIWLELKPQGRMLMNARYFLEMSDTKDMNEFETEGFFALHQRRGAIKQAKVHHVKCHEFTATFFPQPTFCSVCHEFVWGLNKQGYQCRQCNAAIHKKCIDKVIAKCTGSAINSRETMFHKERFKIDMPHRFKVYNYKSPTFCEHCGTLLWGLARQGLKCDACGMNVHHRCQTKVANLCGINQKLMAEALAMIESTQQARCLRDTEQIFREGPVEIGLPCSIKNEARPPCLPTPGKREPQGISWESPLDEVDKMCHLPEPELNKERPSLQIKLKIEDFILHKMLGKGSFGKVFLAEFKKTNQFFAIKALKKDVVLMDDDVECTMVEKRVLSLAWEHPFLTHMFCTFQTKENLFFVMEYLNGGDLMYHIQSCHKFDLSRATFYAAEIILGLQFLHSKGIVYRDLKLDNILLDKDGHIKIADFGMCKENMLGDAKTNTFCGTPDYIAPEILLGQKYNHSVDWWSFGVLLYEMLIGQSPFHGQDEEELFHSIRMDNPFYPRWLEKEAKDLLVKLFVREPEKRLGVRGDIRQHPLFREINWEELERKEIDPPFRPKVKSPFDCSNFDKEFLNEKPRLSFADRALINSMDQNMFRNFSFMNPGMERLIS
Description: as §1

CDK12 = molecular target: T11, CDK12 (Homo sapiens, UniProt Q9NYV4)
T11 construct: endogenous in cells; host or cells: K562
Description: as §1

[1] = KAM 0.001-10 uM, read-out: RB50 (the source's name)
[2] = read-out: RB50 (the source's name)

Q: With `N#CCc1ccc(Nc2nc(NCCCN)cc(Nc3cc(C4CC4)[nH]n3)n2)cc1` [KAM] as the molecule, how does the IC50 (ARAF; [1]) read?
A: > 10 µM

Q: And the “0.001 uM KAM” value (ARAF; relative to 0 uM KAM = 0)?
A: -0.04442

Q: And the “0.01 uM KAM” value (ARAF; relative to 0 uM KAM = 0)?
A: -0.008723

Q: And the “0.1 uM KAM” value (ARAF; relative to 0 uM KAM = 0)?
A: -0.09412

Q: What about the “1 uM KAM” value (ARAF; relative to 0 uM KAM = 0) of the same molecule?
A: -0.1283

Q: And the “10 uM KAM” value (ARAF; relative to 0 uM KAM = 0)?
A: -0.1374

Q: And the IC50 (BUB1; [1])?
A: > 10 µM

Q: And the “0.001 uM KAM” value (BUB1; relative to 0 uM KAM = 0)?
A: -0.05097

Q: And the “0.01 uM KAM” value (BUB1; relative to 0 uM KAM = 0)?
A: -0.002823

Q: And the “0.1 uM KAM” value (BUB1; relative to 0 uM KAM = 0)?
A: -0.07998

Q: What about the “1 uM KAM” value (BUB1; relative to 0 uM KAM = 0) of the same molecule?
A: -0.1399

Q: What about the “10 uM KAM” value (BUB1; relative to 0 uM KAM = 0) of the same molecule?
A: -0.1894

Q: What about the “median Log10 fold change” value (TBK1; 0.001 uM KAM) of the same molecule?
A: -0.0003533

Q: And the “median Log10 fold change” value (TBK1; 0.01 uM KAM)?
A: 0.01133

Q: And the “median Log10 fold change” value (TBK1; 0.1 uM KAM)?
A: -0.1059

Q: What about the “median Log10 fold change” value (TBK1; 1 uM KAM) of the same molecule?
A: -0.5242

Q: And the “median Log10 fold change” value (TBK1; 10 uM KAM)?
A: -0.6823

Q: And the IC50 (TBK1; [2])?
A: 0.452 µM

Q: What about the IC50 (IRAK1; [1]) of the same molecule?
A: 6.03 µM

Q: What about the “0.001 uM KAM” value (IRAK1; relative to 0 uM KAM = 0) of the same molecule?
A: -0.01461

Q: What about the “0.01 uM KAM” value (IRAK1; relative to 0 uM KAM = 0) of the same molecule?
A: -0.006177

Q: What about the “0.1 uM KAM” value (IRAK1; relative to 0 uM KAM = 0) of the same molecule?
A: -0.1059

Q: And the “1 uM KAM” value (IRAK1; relative to 0 uM KAM = 0)?
A: -0.1722

Q: And the “10 uM KAM” value (IRAK1; relative to 0 uM KAM = 0)?
A: -0.3131

Q: What about the “median Log10 fold change” value (ZAK; 0.001 uM KAM) of the same molecule?
A: -0.0362

Q: What about the “median Log10 fold change” value (ZAK; 0.01 uM KAM) of the same molecule?
A: -0.03172

Q: And the “median Log10 fold change” value (ZAK; 0.1 uM KAM)?
A: -0.2036

Q: And the “median Log10 fold change” value (ZAK; 1 uM KAM)?
A: -0.2767

Q: And the “median Log10 fold change” value (ZAK; 10 uM KAM)?
A: -0.5362

Q: What about the IC50 (ZAK; [2]) of the same molecule?
A: 0.99 µM

Q: And the “median Log10 fold change” value (CLK1; 0.001 uM KAM)?
A: 0.02063

Q: What about the “median Log10 fold change” value (CLK1; 0.01 uM KAM) of the same molecule?
A: -0.05735

Q: And the “median Log10 fold change” value (CLK1; 0.1 uM KAM)?
A: -0.2418

Q: And the “median Log10 fold change” value (CLK1; 1 uM KAM)?
A: -0.3053

Q: And the “median Log10 fold change” value (CLK1; 10 uM KAM)?
A: -0.4001

Q: And the IC50 (CLK1; [2])?
A: 0.858 µM

Q: What about the IC50 (MAPK7; [1]) of the same molecule?
A: > 10 µM

Q: And the “0.001 uM KAM” value (MAPK7; relative to 0 uM KAM = 0)?
A: -0.02869

Q: And the “0.01 uM KAM” value (MAPK7; relative to 0 uM KAM = 0)?
A: 0.01229

Q: And the “0.1 uM KAM” value (MAPK7; relative to 0 uM KAM = 0)?
A: -0.142

Q: And the “1 uM KAM” value (MAPK7; relative to 0 uM KAM = 0)?
A: -0.1326

Q: What about the “10 uM KAM” value (MAPK7; relative to 0 uM KAM = 0) of the same molecule?
A: -0.1898

Q: And the IC50 (LIMK2; [1])?
A: > 10 µM

Q: What about the “0.001 uM KAM” value (LIMK2; relative to 0 uM KAM = 0) of the same molecule?
A: -0.04927

Q: And the “0.01 uM KAM” value (LIMK2; relative to 0 uM KAM = 0)?
A: -0.08611

Q: What about the “0.1 uM KAM” value (LIMK2; relative to 0 uM KAM = 0) of the same molecule?
A: -0.1176

Q: What about the “1 uM KAM” value (LIMK2; relative to 0 uM KAM = 0) of the same molecule?
A: -0.1595

Q: And the “10 uM KAM” value (LIMK2; relative to 0 uM KAM = 0)?
A: 0.03187

Q: And the IC50 (RAF1; [1])?
A: > 10 µM

Q: And the “0.001 uM KAM” value (RAF1; relative to 0 uM KAM = 0)?
A: 0.02436

Q: And the “0.01 uM KAM” value (RAF1; relative to 0 uM KAM = 0)?
A: -0.01322

Q: What about the “0.1 uM KAM” value (RAF1; relative to 0 uM KAM = 0) of the same molecule?
A: -0.08739

Q: And the “1 uM KAM” value (RAF1; relative to 0 uM KAM = 0)?
A: -0.1339

Q: What about the “10 uM KAM” value (RAF1; relative to 0 uM KAM = 0) of the same molecule?
A: -0.1871

Q: And the “median Log10 fold change” value (PRKCQ; 0.001 uM KAM)?
A: -0.05924

Q: And the “median Log10 fold change” value (PRKCQ; 0.01 uM KAM)?
A: -0.02167

Q: And the “median Log10 fold change” value (PRKCQ; 0.1 uM KAM)?
A: -0.1204

Q: What about the “median Log10 fold change” value (PRKCQ; 1 uM KAM) of the same molecule?
A: -0.1965

Q: And the “median Log10 fold change” value (PRKCQ; 10 uM KAM)?
A: -0.3734

Q: And the IC50 (PRKCQ; [2])?
A: 3.6 µM

Q: What about the “median Log10 fold change” value (CDK12; 0.001 uM KAM) of the same molecule?
A: 0.006765

Q: What about the “median Log10 fold change” value (CDK12; 0.01 uM KAM) of the same molecule?
A: 0.002685

Q: And the “median Log10 fold change” value (CDK12; 0.1 uM KAM)?
A: -0.1288

Q: And the “median Log10 fold change” value (CDK12; 1 uM KAM)?
A: -0.2742

Q: And the “median Log10 fold change” value (CDK12; 10 uM KAM)?
A: -0.4096

Q: What about the IC50 (CDK12; [2]) of the same molecule?
A: 1.57 µM

From paper PMC5513037, “Examining the influence of specificity ligands and ATP-competitive ligands on the overall effectiveness of bivalent kinase inhibitors” (Proteome Science, 2017)
